Test results reported in patent US7531671B2, “Dihydroisoindolones as allosteric modulators of glucokinase” (Janssen Pharmaceutica N.V., priority 2005, dated 2009).
“And” between values parts separate entries of the source, which are not always exact repeats. Equal values may be shown once.

Target: T1, human pancreas Glucokinase (GK) (Homo sapiens, UniProt P35557)
T1 construct: (His)6; made in house; host or cells: Escherichia coli
T1 sequence (P35557 1-465): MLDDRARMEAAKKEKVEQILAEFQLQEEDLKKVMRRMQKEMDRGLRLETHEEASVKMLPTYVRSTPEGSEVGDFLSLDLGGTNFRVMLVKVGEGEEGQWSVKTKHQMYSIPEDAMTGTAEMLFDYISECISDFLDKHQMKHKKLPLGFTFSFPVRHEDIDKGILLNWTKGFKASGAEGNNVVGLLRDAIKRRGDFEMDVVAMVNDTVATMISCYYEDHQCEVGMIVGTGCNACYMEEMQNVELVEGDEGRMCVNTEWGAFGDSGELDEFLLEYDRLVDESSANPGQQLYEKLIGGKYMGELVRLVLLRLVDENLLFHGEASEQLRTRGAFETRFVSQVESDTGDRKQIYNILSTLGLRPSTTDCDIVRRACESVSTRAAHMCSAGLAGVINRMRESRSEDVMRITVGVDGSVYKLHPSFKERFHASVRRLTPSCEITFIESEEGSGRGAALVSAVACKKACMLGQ
Assay: Glucokinase enzyme assay, Pancreas GK data
Assay type: biochemical
Settings: for activation at 50 µM: compound 50 μM, percentage increase in GK activity above vehicle control, 12 mM glucose; for EC50: concentration producing 50% activation above vehicle control; for EC100%: concentration producing 100% activation above vehicle control
Description: An enzymatic Glucokinase (GK) assay using purified recombinant human liver/pancreas enzyme was used to evaluate the effects of potential small molecule modulators.
In this assay, GK catalyzes glucose phosphorylation in the presence of ATP. The product of this reaction, glucose-6-phosphate, was then oxidized by an excess of glucose-6-phosphate dehydrogenase to produce gluconate-6-phosphate with concomitant reduction of nicotinamide adenine dinucleotide (NAD). […] Human GK (Liver/Pancreas) was expressed in Escherichia coli as a (His) 6-tagged fusion protein and was purified by metal chelate affinity chromatography. The assay was performed in a final incubation volume of 80 μl in a 96-well clear low UV absorption plates. The incubation mixture consisted of 25 mM HEPES, 2 mM MgSO4, 1 mM dithiothreotol (DTT), 1 mg/ml bovine serum albumin (BSA), 1 mM ATP, 1 mM NAD, and 12 mM glucose, 10 units per ml glucose-6-phosphate dehydrogenase, and +/−300 ng per ml GK. For determination of the affinity (Km) and Vmax, different concentrations of glucose ranging from 0.5 mM to 40 mM were used in the assay; see Grimsby, J., Sarabu, R.; Grippo, J. F.; et. al. Science 2003, 301, 370-373. Production of reduced NAD (Nicotinamide Adenine Dinucleotide) was measured as changes in absorption at 340 nm in 96-well plate reader (Envision model # 2101 Multilabel Plate reader). % Activation @ 50 μM was calculated as the percentage increase in GK activity above the vehicle control with the effective concentration of the compound being 50 μM. EC50% (μM) was calculated as the effective concentration of the compound that produces 50% activation above the vehicle control, and EC100% (μM) was calculated as the effective concentration of the compound that produces 100% activation above the vehicle control.

Row | Structure (SMILES) | activation at 50 µM | EC50 | EC100%
1 | O=C(CSC1c2ccccc2C(=O)N1Cc1ccc2c(c1)OCCO2)Nc1ccccn1 (stereo not shown) [Compound 38, 2-[2-(2,3-Dihydro-benzo[1,4]dioxin-6-ylmethyl)-3-oxo-2,3-dihydro-1H-isoindol-1-ylsulfanyl]-N-pyridin-2-yl-acetamide] | 201% | 1000 nM | 3.8 µM
2 | COc1cc(CN2C(=O)c3ccccc3C2SCC(=O)Nc2ccccn2)cc(OC)c1OC (stereo not shown) [Compound 39, 2-[3-Oxo-2-(3,4,5-trimethoxy-benzyl)-2,3-dihydro-1H-isoindol-1-ylsulfanyl]-N-pyridin-2-yl-acetamide] | 193% | 1400 nM | 5.3 µM
3 | O=C(CSC1c2ccccc2C(=O)N1Cc1ccc(N2CCCC2=O)cc1)Nc1ccccn1 (stereo not shown) [Compound 40, 2-{3-Oxo-2-[4-(2-oxo-pyrrolidin-1-yl)-benzyl]-2,3-dihydro-1H-isoindol-1-ylsulfanyl}-N-pyridin-2-yl-acetamide] | 109% | 2100 nM | 16.1 µM
4 | O=C(CSC1c2ccccc2C(=O)N1Cc1ccc2c(c1)OCO2)Nc1ccccn1 (stereo not shown) [Compound 41, 2-(2-Benzo[1,3]dioxol-5-ylmethyl-3-oxo-2,3-dihydro-1H-isoindol-1-ylsulfanyl)-N-pyridin-2-yl-acetamide] | 152% | 2800 nM | 10 µM
5 | COc1ccc(CN2C(=O)c3ccccc3C2SCC(=O)Nc2ccccn2)cc1OC (stereo not shown) [Compound 42, 2-[2-(3,4-Dimethoxybenzyl)-3-oxo-2,3-dihydro-1H-isoindol-1-ylsulfanyl]-N-pyridin-2-yl-acetamide] | – | 540 nM and 780 nM | 1.6 µM and 2.4 µM
6 | O=C(CSC1c2ccccc2C(=O)N1Cc1cccc2ccccc12)Nc1ccccn1 (stereo not shown) [Compound 43, 2-(2-Naphthalen-1-ylmethyl-3-oxo-2,3-dihydro-1H-isoindol-1-ylsulfanyl)-N-pyridin-2-yl-acetamide] | 112% | 4000 nM | 7.1 µM
7 | O=C(CSC1c2ccccc2C(=O)N1Cc1ccc2sccc2c1)Nc1ccccn1 (stereo not shown) [Compound 44, 2-(2-Benzo[b]thiophen-5-ylmethyl-3-oxo-2,3-dihydro-1H-isoindol-1-ylsulfanyl)-N-pyridin-2-yl-acetamide] | 116% | 890 nM | 5.9 µM
8 | Cc1[nH]c2ccc(CN3C(=O)c4ccccc4C3SCC(=O)Nc3ccccn3)cc2c1C (stereo not shown) [Compound 45, 2-[2-(2,3-Dimethyl-1H-indol-5-ylmethyl)-3-oxo-2,3-dihydro-1H-isoindol-1-ylsulfanyl]-N-pyridin-2-yl-acetamide] | 132% | 380 nM | 2 µM
9 | O=C(CSC1c2ccccc2C(=O)N1Cc1ccc(-n2cccc2)cc1)Nc1ccccn1 (stereo not shown) [Compound 46, 2-[3-Oxo-2-(4-pyrrol-1-yl-benzyl)-2,3-dihydro-1H-isoindol-1-ylsulfanyl]-N-pyridin-2-yl-acetamide] | 106% | 800 nM | 4.8 µM
10 | O=C(CSC1c2ccccc2C(=O)N1Cc1ccc(-n2cccn2)cc1)Nc1ccccn1 (stereo not shown) [Compound 47, 2-[3-Oxo-2-(4-pyrazol-1-yl-benzyl)-2,3-dihydro-1H-isoindol-1-ylsulfanyl]-N-pyridin-2-yl-acetamide] | 106% | 800 nM | –
11 | O=C(CSC1c2ccccc2C(=O)N1Cc1ccc(OC(F)(F)F)cc1)Nc1ccccn1 (stereo not shown) [Compound 48, 2-[3-Oxo-2-(4-trifluoromethoxybenzyl)-2,3-dihydro-1H-isoindol-1-ylsulfanyl]-N-pyridin-2-yl-acetamide] | 174% | 1600 nM | 6.9 µM
12 | COc1ccc(CN2C(=O)c3ccccc3C2SCC(=O)Nc2ccccn2)cc1 (stereo not shown) [Compound 49, 2-[2-(4-Methoxybenzyl)-3-oxo-2,3-dihydro-1H-isoindol-1-ylsulfanyl]-N-pyridin-2-yl-acetamide] | 250% | 210 nM | 0.86 µM
